# Like-named read-outs stand apart in the source and are kept apart here.
# How the values were obtained:
# [1] = Brain pharmacokinetics and brain to plasma ratio after IV co-administration of DMT and DMT-d10 to male rats (Group 4); type: in vivo, Sprague Dawley rats; conditions: for Cmax / Tmax / half-life / Kp: Sprague Dawley, rat; for Cmax / Tmax / AUC0-inf / AUC(0-t) / half-life: brain; for Cmax / Tmax / AUC0-inf / AUC(0-t): Group 4 IV bolus 1 mg/kg, male rats; for Distribution into brain: after IV co-administration; for half-life / Kp: male, 1 mg/kg; for half-life: Group 4 IV, calculated 0.25 to 1 hr; for Kp: brain / plasma, intravenous, read-out: B/P (AUC0-1), brain to plasma ratio
# Protocol: The pharmacokinetics and bioavailability of N,N-dimethyltryptamine (DMT) and 2-(1H-indol-3-yl)-N,N-bis(methyl-d3)ethan-1-amine-1,1,2,2-d4 (DMT-d10) were investigated in rats following intravenous (bolus), oral gavage (OG), and inhalation after co-dose administration.
# Sampling collection. PK samples (0.3 mL) were collected from the jugular vein by venepuncture into tubes containing K2EDTA anticoagulant at the following sampling times: Group 1 (IV) and Group 2 (oral) serial plasma collection at 0.083, 0.25, 0.5, 1, 3, 8 and 24 hr postdose; Group 4 (IV) composite plasma and brain collection at 0.083, 0.25, 0.5 and […]; Group 6 (inhalation) serial plasma collection at 0.333, 0.533, 0.833, 1.333, 3.333, 8.333 and 24.333 after start of inhalation.
# Brain samples: After extraction of whole brain from the cranium, brains were rinsed, patted dry, weighed, placed into tubes and frozen on dry ice. Thereafter, they were stored at −70 (10°) C pending analysis.
# Bioanalysis. Plasma and brain homogenates were analyzed for DMT and DMT-d10 using an established LC-MS/MS assay.) Pharmacokinetic parameters were determined from the DMT and DMT-d10 plasma and brain concentration-time profiles using commercially available software (Phoenix® WinNonlin®).
# [2] = Plasma pharmacokinetics of co-administered DMT and DMT-d10 by intravenous (bolus), oral gavage and inhalation administration to male rats; conditions: for time of peak plasma concentration postdose: after oral administration; for mean residence time (MRT) after inhalation compared to IV administration: inhalation vs IV; for F: calculated from dose normalized AUC0-1 mean values vs Group 4 IV; for bioavailability / Tmax / half-life / AUC(0-t) / AUC0-inf / Cmax / MRT last / AUC0-1/dose / t1/2: plasma
# [3] = cited from earlier work
# [4] = molecular target: T1, serotonin 5-HT2A receptor (Mus musculus, UniProt P35363); conditions: 1 mg/kg dose, intraperitoneal, rats and mice; cited from earlier work
# T1 construct: endogenous in cells; host or cells: living mice (in vivo behavioural assay); receptor endogenous to the animal
# T1 sequence (P35363 whole entry): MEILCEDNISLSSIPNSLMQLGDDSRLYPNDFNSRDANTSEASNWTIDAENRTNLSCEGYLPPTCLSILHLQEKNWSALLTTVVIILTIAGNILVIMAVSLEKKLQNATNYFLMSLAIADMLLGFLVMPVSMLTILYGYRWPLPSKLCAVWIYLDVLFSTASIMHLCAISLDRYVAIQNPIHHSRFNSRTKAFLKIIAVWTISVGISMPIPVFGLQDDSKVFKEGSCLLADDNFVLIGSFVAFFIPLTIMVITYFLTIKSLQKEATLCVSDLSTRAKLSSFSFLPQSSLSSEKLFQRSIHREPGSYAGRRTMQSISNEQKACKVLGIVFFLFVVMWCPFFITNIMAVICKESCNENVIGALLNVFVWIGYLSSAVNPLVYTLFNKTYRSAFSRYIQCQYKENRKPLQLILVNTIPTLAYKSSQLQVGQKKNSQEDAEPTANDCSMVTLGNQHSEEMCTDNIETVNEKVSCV
# [5] = Experiment 6: blood neurotrophic and endocrine biomarkers after DMT+N2O in healthy human participants; conditions: DMT 0.1, 0.2, 0.4 mg/kg
# Excerpt: General experimental design. The proposed studies aim to define proof-of-concept synergistic interactions of inhalational DMT fumarate with N2O, or IV DMT fumarate administered as a bolus over 30 seconds. Healthy adult participants will be exposed to either inhalational DMT in 20-25% N2O in oxygen as the carrier gas, or inhalational DMT in oxygen alone as the carrier gas in a blinded manner, or IV DMT while inhaling 20-25% N2O in oxygen, or oxygen.
# Pre-study: Baseline measurements of heart rate, body temperature and blood pressure will be made. An IV cannula will be inserted into a forearm vein for blood sampling and to allow administration of DMT as a bolus in the IV condition. Participants will be allowed to relax for 30 min before the drug session. Study session: Participants will receive administration of either 20-25% N2O in oxygen, or oxygen alone, for 10 minutes prior to the administration of a high, medium or low dose of inhalational or IV DMT (0.4, 0.2, 0.1 mg/kg) over the course of 30 sec-1 minute. […]
# Baseline blood samples will be drawn 30 minutes before N2O or oxygen administration, and after 8 mins of N2O or oxygen administration for endocrine markers of HPA axis activation: corticotropin, β-endorphin, prolactin, GH and cortisol levels. Further blood samples will be drawn, and vital signs measured 2, 15, 60 and 120 minutes after DMT administration. […]
# [6] = rats, following intraperitoneal injection; cited from earlier work
# [7] = inhalation, DMT 15.3 mg/kg, DMT-d10 14.7 mg/kg
# [8] = male, Sprague Dawley, rat, inhaled
# [9] = male, Sprague Dawley, rat, inhaled or intranasal
# [10] = male, Sprague Dawley, rat, inhaled or intranasal, AUC0-1, plasma, Group 6 inhalation, DMT 15.3 mg/kg, DMT-d10 14.7 mg/kg
# [11] = male, Sprague Dawley, rat, inhaled or intranasal, AUC0-1, plasma, inhalation, DMT 15.3 mg/kg, DMT-d10 14.7 mg/kg (summary table)
# [12] = male, Sprague Dawley, rat, inhaled or intranasal, AUC0-t, Group 6 inhalation, DMT 15.3 mg/kg, DMT-d10 14.7 mg/kg
# [13] = male, Sprague Dawley, rat, iv, 1 mg/kg
# [14] = male, Sprague Dawley, rat, iv, 1 mg/kg, AUC0-1, plasma, 1 mg/kg (summary table)
# [15] = male, Sprague Dawley, rat, iv, 1 mg/kg, AUC0-1, plasma, Group 4 IV bolus, 1 mg/kg, male rats
# [16] = male, Sprague Dawley, rat, iv, 1 mg/kg, AUC0-t, Group 4 IV bolus, 1 mg/kg, male rats
# [17] = male, Sprague Dawley, rat, po, 10 mg/kg
# [18] = male, Sprague Dawley, rat, po, 10 mg/kg, AUC0-1, plasma, 10 mg/kg (summary table)
# [19] = male, Sprague Dawley, rat, po, 10 mg/kg, AUC0-1, plasma, Group 2 oral gavage (OG), 10 mg/kg, male rats
# [20] = male, Sprague Dawley, rat, po, 10 mg/kg, AUC0-t, Group 2 oral gavage (OG), 10 mg/kg, male rats
# [21] = inhalation, calculated 0.333 to 3.333 hr (summary table)
# [22] = intravenous 1 mg/kg, calculated 0.083 to 1.0 hr (summary table)
# [23] = human, IV bolus of DMT (as fumarate salt), 0.05-0.4 mg/kg
smiles,measurement,setting,value
"CN(C)CCc1c[nH]c2ccccc12 [DMT, N,N-dimethyltryptamine]",Cmax,[1],3430 ng/g
same,Tmax,[1],5 min
same,Distribution into brain,[1],high
same,AUC0-inf,[1],1070 ng·h/g
same,AUC(0-t),[1],1060 ng·h/g
same,half-life,[1],9.3 min
same,Kp,[1],9
same,time of highest plasma concentration (first time point taken),[2]; after IV bolus,0.083 h
same,time of highest plasma concentration (first time point taken),[2]; after inhalation,0.333 h
same,time of peak plasma concentration postdose,[2],1 h
same,mean residence time (MRT) after inhalation compared to IV administration,[2],approximately 2 ×
same,F,[2]; [7],15.3%
same,bioavailability,[2]; [8],15.3%
same,Tmax,[2]; [9],20 min
same,half-life,[2]; [9],19.7 min
same,AUC(0-t),[2]; [10],265 ng·h/mL
same,AUC(0-t),[2]; [11],265 ng·h/mL
same,AUC(0-t),[2]; [12],300 ng·h/mL
same,AUC0-inf,[2]; [13],115 ng·h/mL
same,Cmax,[2]; [13],314 ng/mL
same,MRT last,[2]; [13],13.6 min
same,half-life,[2]; [13],10.1 min
same,AUC(0-t),[2]; [14],113 ng·h/mL
same,AUC(0-t),[2]; [15],113 ng·h/mL
same,AUC(0-t),[2]; [16],113 ng·h/mL
same,Cmax,[2]; [17],28 ng/mL
same,MRT last,[2]; [17],172 min
same,Tmax,[2]; [17],60 min
same,bioavailability,[2]; [17],1.2%
same,AUC(0-t),[2]; [18],13.7 ng·h/mL
same,AUC(0-t),[2]; [19],13.7 ng·h/mL
same,AUC(0-t),[2]; [20],65 ng·h/mL
same,F,[2]; oral gavage 10 mg/kg,1.2%
same,AUC0-1/dose,[2]; [7],17.3
same,t1/2,[2]; [21],19.7 min
same,t1/2,[2]; [22],10.1 min
same,AUC0-1/dose,"[2]; intravenous, 1 mg/kg",113
same,AUC0-1/dose,"[2]; oral, 10 mg/kg",1.37
same,half-life,[3]; administered intravenously,around 15 minutes
same,time to peak plasma concentrations,[3]; administered intravenously,approximately 2 minutes
same,subjective effects,"[3]; human, 0.1 mg/kg IV",not hallucinogenic
same,subjective effects,"[3]; human, 0.2 and 0.4 mg/kg IV","nearly instantaneous onset of visual hallucinatory phenomena, bodily dissociation, and extreme shifts in mood"
same,peak of psycho-biological effects after administration,[3]; [23],120 seconds
same,time by which psycho-biological effects resolve,[3]; [23],≤ 30 minutes
same,duration of effect,[3]; vaporized DMT,less than 30 min
same,hallucinogenic effect as measured by head-twitch responses (HTRs),[4],sub-hallucinogenic
same,levels of VEGF and BDNF in blood,[5],dose-dependently increased levels
same,half-life,[6],5 to 15 min
same,"time to be metabolized and cleared from brain, liver, and plasma",[6],≤ 1 h
"[2H]C([2H])([2H])N(C([2H])([2H])[2H])C([2H])([2H])C([2H])([2H])c1c[nH]c2ccccc12 [DMT-d10, 2-(1H-indol-3-yl)-N,N-bis(methyl-d3)ethan-1-amine-1,1,2,2-d4]",improvement of brain to plasma (B/P) ratio by deuteration,"[1]; DMT-d10 vs. DMT, IV",approximately 50%
same,Cmax,[1],1490 ng/g
same,Tmax,[1],5 min
same,Distribution into brain,[1],high
same,AUC0-inf,[1],1290 ng·h/g
same,AUC(0-t),[1],931 ng·h/g
same,half-life,[1],33.9 min
same,Kp,[1],14
same,increase of inhalation bioavailability by deuteration,[2]; DMT-d10 vs. DMT,approximately 60%
same,time of highest plasma concentration (first time point taken),[2]; after IV bolus,0.083 h
same,time of highest plasma concentration (first time point taken),[2]; after inhalation,0.333 h
same,time of peak plasma concentration postdose,[2],1 h
same,mean residence time (MRT) after inhalation compared to IV administration,[2],approximately 2 ×
same,F,[2]; [7],24.3%
same,bioavailability,[2]; [8],24.3%
same,Tmax,[2]; [9],20 min
same,half-life,[2]; [9],23.7 min
same,AUC(0-t),[2]; [10],267 ng·h/mL
same,AUC(0-t),[2]; [11],267 ng·h/mL
same,AUC(0-t),[2]; [12],361 ng·h/mL
same,AUC0-inf,[2]; [13],92.6 ng·h/mL
same,Cmax,[2]; [13],148 ng/mL
same,MRT last,[2]; [13],20.9 min
same,half-life,[2]; [13],26.5 min
same,AUC(0-t),[2]; [14],74.6 ng·h/mL
same,AUC(0-t),[2]; [15],74.6 ng·h/mL
same,AUC(0-t),[2]; [16],74.6 ng·h/mL
same,Cmax,[2]; [17],20.8 ng/mL
same,MRT last,[2]; [17],221 min
same,Tmax,[2]; [17],60 min
same,bioavailability,[2]; [17],1.2%
same,AUC(0-t),[2]; [18],8.78 ng·h/mL
same,AUC(0-t),[2]; [19],8.78 ng·h/mL
same,AUC(0-t),[2]; [20],77.2 ng·h/mL
same,F,[2]; oral gavage 10 mg/kg,1.2%
same,Cmax,"[2]; Group 4 IV bolus, 1 mg/kg, male rats",148 ng/mL
same,AUC0-1/dose,[2]; [7],18.2
same,t1/2,[2]; [21],23.7 min
same,t1/2,[2]; [22],26.5 min
same,AUC0-1/dose,"[2]; intravenous, 1 mg/kg",74.6
same,AUC0-1/dose,"[2]; oral, 10 mg/kg",0.878

# Source: patent US20240366655A1, “COMBINATION DRUG THERAPIES” (CYBIN IRL LIMITED, priority 2021, published 2024)
